In patent US8987242B2, “Morpholinone compounds as factor IXA inhibitors” (Merck Sharp & Dohme Corp., priority 2008, dated 2015):
Where a name gives a salt, the structure may show the parent alone.

Biological target: human factor IXa (Homo sapiens (Human), UniProt P00740)
Assay: Determination of inhibitory activity against factor IXa (SPECTROFLUOR FIXa fluorogenic substrate enzyme assay)
Format: biochemical
Settings: human factor IXa 2.0 μg/ml, SPECTROFLUOR FIXa 100 μM, 60 minutes at room temperature, pH 8.0; read-out: Factor IXa enzyme assay IC50
Experimental: Inhibitory activity against factor IXa was tested using the substrate SPECTROFLUOR FIXa (american diagnostica inc.; 500 West Avenue, Stamford, Conn. 06902 USA; Pr. No. 299F) and human factor IXa (american diagnostica inc.; Pr. No. 449b). Test substances dissolved in buffer A (50 mM α,α,α-tris(hydroxymethyl)methylamine (Tris), 100 mM NaCl, 5 mM CaCl2, 15% (v/v) ethylene glycol, pH 8.0) were mixed with factor IXa (2.0 μg/ml final concentration). The enzyme reaction was started by addition of SPECTROFLUOR FIXa (100 μM final concentration). After incubation for 60 minutes at room temperature, the reaction was stopped by the addition of 20% (v/v) acetic acid solution, and then measured the fluorescence value (Excitation Wavelength: 355 nm, Emission Wavelength; 460 nm) in a microtiter plate reader (ARVO 1420 Multilabel Counter; PerkinElmer).
The IC50 was calculated from a dilution series of the test substance with the aid of the software, Symix Assay Explorer (Symyx Technologies, Inc.).

human factor IXa, sequence (P00740 227-461): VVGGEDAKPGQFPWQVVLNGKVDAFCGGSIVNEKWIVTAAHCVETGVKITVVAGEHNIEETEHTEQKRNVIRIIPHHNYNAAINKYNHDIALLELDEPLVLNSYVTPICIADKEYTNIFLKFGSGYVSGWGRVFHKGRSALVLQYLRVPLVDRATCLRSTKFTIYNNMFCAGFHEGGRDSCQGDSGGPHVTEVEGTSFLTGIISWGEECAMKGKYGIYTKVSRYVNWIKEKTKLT
human factor IXa, sequence (P00740 47-191 partner): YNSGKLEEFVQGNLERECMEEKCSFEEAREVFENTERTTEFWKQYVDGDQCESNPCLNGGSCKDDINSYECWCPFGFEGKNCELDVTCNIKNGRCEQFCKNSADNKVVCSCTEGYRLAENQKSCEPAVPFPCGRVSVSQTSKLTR

IC50 | SMILES
0.066 µM | N#Cc1ccccc1N1CCO[C@H]([C@@H](O)C(=O)Nc2ccc3c(c2)CNC3=N)C1=O [Example aa142, 4-(2-Cyanophenyl)-N-(2,3-dihydro-1-imino-1h-isoindol-5-yl)-alpha(R)-hydroxy-3-oxo-2(R)-morpholine acetamide]
1.2 µM | Nc1noc2cc(NC(=O)[C@H](O)[C@H]3OCCN(c4ccc(F)c(C(=O)N5CCOCC5)c4)C3=O)c(F)cc12 [Example aa152, N-(3-Amino-5-fluoro-1,2-benzisoxazol-6-yl)-4-[4-fluoro-3-(4-morpholinylcarbonyl)phenyl]-alpha(R)-hydroxy-3-oxo-2(R)-morpholineacetamide]
0.38 µM | Nc1noc2cc(NC(=O)[C@H](O)[C@H]3OCCN(c4ccc(S(F)(F)(F)(F)F)cc4)C3=O)ccc12 [Example aa151, [4-[2(R)-[2-[(3-Amino-1,2-bcnzisoxazol-6-yl)amino]-1(R)-hydroxy-2-oxoethyl]-3-oxo-4-morpholinyl]phenyl] pentafluorosulfur]
0.013 µM | N=C1NCc2cc(NC(=O)[C@H](O)[C@H]3OCCN(c4ccc(F)c(C(=O)N5CCOCC5)c4)C3=O)ccc21 [Example aa144, N-(2,3-Dihydro-1-imino-1h-isoindol-5-yl)-4-[4-fluoro-3-(4-morpholinylcarbonyl)phenyl]-alpha(R)-hydroxy-3-oxo-2(R)-morpholineacetamide]

Same assay, conditions: human factor IXa 2.0 μg/ml, SPECTROFLUOR FIXa 100 μM, 60 minutes at room temperature, pH 8.0; read-out: Factor IXa enzyme assay IC50 [micro M]

SMILES | IC50
Cc1ccc(N2CCO[C@H]([C@@H](O)C(=O)Nc3ccc4c(N)nccc4c3)C2=O)cc1 [Example 62, (2R)—N-(1-aminoisoquinolin-6-yl)-2-hydroxy-2-[(2R)-3-oxo-4-p-tolylmorpholin-2-yl]acetamide hydrochloride] | 0.02 µM
CS(=O)(=O)c1ccccc1-c1ccc(N2CCO[C@H]([C@@H](O)C(=O)Nc3ccc(C(=N)N)cc3)C2=O)cc1 [Example 105, (2R)—N-(4-amidinophenyl)-2-hydroxy-2-[(2R)-4-[4-(2-methylsulfonylphenyl)phenyl]-3-oxomorpholin-2-yl]acetamide hydrochloride] | 0.01 µM
Cc1ccc(N2CCCO[C@H]([C@@H](O)C(=O)Nc3ccc(C(=N)N)cc3)C2=O)cc1 [Example 114, (2R)—N-(4-amidinophenyl)-2-hydroxy-2-[(2R)-3-oxo-4-(p-tolyl)-1,4-oxazepan-2-yl]acetamide hydrochloride] | 0.03 µM
N=C(N)c1ccc(NC(=O)[C@H](O)[C@H]2OCCN(c3cccc(NC(=O)CO)c3)C2=O)cc1 [Example 50, (2R)—N-(4-amidinophenyl)-2-hydroxy-2-[(2R)-4-[3-[(2-hydroxyacetyl)amino]phenyl]-3-oxomorpholin-2-yl]acetamide hydrochloride] | 0.02 µM
Cc1ccc(N2CCOC(C(O)C(=O)Nc3ccc(C(=N)N)cc3)C2=O)cc1 (stereo not shown) [Example 2, N-(4-amidinophenyl)-2-hydroxy-2-(3-oxo-4-p-tolylmorpholin-2-yl)acetamide trifluoroacetate] | 0.03 µM
N=C(N)c1ccc(NC(=O)[C@H](O)[C@H]2OCCN(c3ccc(C4CCCCC4)cc3)C2=O)cc1 [Example 15, (2R)—N-(4-amidinophenyl)-2-[(2R)-4-(4-cyclohexylphenyl)-3-oxomorpholin-2-yl]-2-hydroxyacetamide hydrochloride] | 0.02 µM
Cc1ccc(N2CCOC(C(O)C(=O)Nc3ccc4c(N)nccc4c3)C2=O)cc1 (stereo not shown) [Example 1, N-(1-aminoisoquinolin-6-yl)-2-hydroxy-2-(3-oxo-4-p-tolylmorpholin-2-yl)acetamide trifluoroacetate] | 0.04 µM

Now from value to molecule:

IC50 | SMILES
0.06 µM | CC(C)(C)c1ccc(N2CCO[C@H]([C@@H](O)C(=O)Nc3ccc(C(=N)N)cc3F)C2=O)cc1 [Example 67, (2R)—N-(4-amidino-2-fluorophenyl)-2-[(2R)-4-(4-tert-butylphenyl)-3-oxomorpholin-2-yl]-2-hydroxyacetamide acetate]
0.06 µM | CC(=O)N1CCN(c2ccc(C)cc2)C(=O)C1C(O)C(=O)Nc1ccc2c(N)nccc2c1 (stereo not shown) [Example 109, 2-[1-acetyl-3-oxo-4-(p-tolyl)piperazin-2-yl]-N-(1-amino-6-isoquinolyl)-2-hydroxy-acetamide trifluoroacetate]
